Measurements as given in PubChem BioAssay AID330 (DTP/NCI, 2004).
Values joined by “and” are separate entries in the source; they are usually repeats but may differ in a detail not shown here. Identical values can stand only once. Inconclusive results and toxic doses are left out. Rule for the calls: active = survival T/C of 150% or more; inactive = T/C below 125% in these data. Square brackets hold non-standard residues; d marks the D form. Peptide text beside a SMILES is read from it. * marks the point of attachment. Cbz = O=C(OCc1ccccc1)*; Nva = CCC[CH](N)C(=O)O

Tested on: P388 leukemia ip, CD2F1 mice, survival T/C
Assay: NCI In Vivo Anticancer Drug Screen. Data for tumor model P388 Leukemia (intraperitoneal) in CD2F1 (CDF1) mice
Details: endpoint: median survival time, higher = longer survival
Outline: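 Mice carrying the transplanted tumor received test compound or vehicle. Survival was recorded in each group, and the value is the treated-group measurement divided by that of the vehicle-treated control group.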

[1] = dose: 12.5 mg/kg/injection, schedule: Q01DX009 (ip), vehicle: distilled water + Tween-80
[2] = dose: 25.0 mg/kg/injection, schedule: Q01DX009 (ip), vehicle: distilled water + Tween-80
[3] = dose: 50.0 mg/kg/injection, schedule: Q01DX009 (ip), vehicle: distilled water + Tween-80
[4] = dose: 100.0 mg/kg/injection, schedule: Q01DX009 (ip), vehicle: distilled water + Tween-80
[5] = dose: 200.0 mg/kg/injection, schedule: Q01DX009 (ip), vehicle: distilled water + Tween-80
[6] = dose: 60.0 mg/kg/injection, schedule: Q01DX005 (ip), vehicle: saline with Tween-80
[7] = dose: 120.0 mg/kg/injection, schedule: Q01DX005 (ip), vehicle: saline with Tween-80
[8] = dose: 240.0 mg/kg/injection, schedule: Q01DX005 (ip), vehicle: saline with Tween-80
[9] = dose: 50.0 mg/kg/injection, schedule: Q01DX005 (ip), vehicle: Klucel (hydroxypropylcellulose) (HPC)
[10] = dose: 100.0 mg/kg/injection, schedule: Q01DX005 (ip), vehicle: Klucel (hydroxypropylcellulose) (HPC)
[11] = dose: 200.0 mg/kg/injection, schedule: Q01DX005 (ip), vehicle: Klucel (hydroxypropylcellulose) (HPC)
[12] = dose: 60.0 mg/kg/injection, schedule: Q01DX005 (ip), vehicle: Klucel (hydroxypropylcellulose) (HPC)
[13] = dose: 120.0 mg/kg/injection, schedule: Q01DX005 (ip), vehicle: Klucel (hydroxypropylcellulose) (HPC)
[14] = dose: 240.0 mg/kg/injection, schedule: Q01DX005 (ip), vehicle: Klucel (hydroxypropylcellulose) (HPC)
[15] = dose: 25.0 mg/kg/injection, schedule: Q01DX005 (ip), vehicle: Klucel (hydroxypropylcellulose) (HPC)
[16] = dose: 25.0 mg/kg/injection, schedule: Q01DX001 (ip), vehicle: saline with Tween-80
[17] = dose: 50.0 mg/kg/injection, schedule: Q01DX001 (ip), vehicle: saline with Tween-80
[18] = dose: 50.0 mg/kg/injection, schedule: Q01DX009 (ip), vehicle: saline with Tween-80
[19] = dose: 100.0 mg/kg/injection, schedule: Q01DX009 (ip), vehicle: saline with Tween-80

Measured: T/C

COC1OCC(NC(=O)CNC(=O)CCCCCCCCCCCCC(C)C)C(O)C1O (stereo not drawn)
inactive: dose: 6.25 mg/kg/injection, schedule: Q01DX009 (ip), vehicle: distilled water + Tween-80 100 % of control | [1] 93 % of control | [2] 99 % of control | [3] 104 % of control | [4] 104 % of control | [5] 108 % of control

COc1ccc(Cl)cc1C
inactive: [1] 99 % of control | [2] 97 % of control | [3] 98 % of control | [4] 98 % of control | [5] 108 % of control | dose: 400.0 mg/kg/injection, schedule: Q01DX009 (ip), vehicle: distilled water + Tween-80 116 % of control

COc1ccc(-c2nc(SCC(=O)O)n(-c3ccccn3)c2-c2ccc(OC)cc2)cc1
inactive: dose: 100.0 mg/kg/injection, schedule: Q01DX001 (ip), vehicle: water 100 % of control | dose: 200.0 mg/kg/injection, schedule: Q01DX001 (ip), vehicle: water 91 % of control

NC(=O)NC(=O)C(Cc1ccccc1)c1ccccc1 (stereo not drawn)
inactive: [6] 99 % of control | [7] 95 % of control | [8] 86 % of control

Cc1cn(CCCn2cnc3c(=O)[nH]cnc32)c(=O)[nH]c1=O
inactive: [6] 92 % of control | [7] 101 % of control | [8] 88 % of control

CCCCN(CCC#N)C(N)=O
inactive: [9] 100 % of control | [10] 100 % of control | [11] 100 % of control

Cc1c(NC(=O)Nc2cc([N+](=O)[O-])ccc2Cl)c(=O)n(-c2ccccc2)n1C
inactive: [6] 94 % of control | [7] 86 % of control

S=c1nc[nH]c2c1ncn2C1C=CCCC1 (stereo not drawn)
inactive: dose: 100.0 mg/kg/injection, schedule: Q04DX003 (ip), vehicle: saline with Tween-80 90 % of control | dose: 176.0 mg/kg/injection, schedule: Q01DX009 (ip), vehicle: saline with Tween-80 100 % of control | dose: 200.0 mg/kg/injection, schedule: Q04DX003 (ip), vehicle: saline with Tween-80 90 % of control | dose: 264.0 mg/kg/injection, schedule: Q01DX009 (ip), vehicle: saline with Tween-80 95 % of control | dose: 400.0 mg/kg/injection, schedule: Q01DX009 (ip), vehicle: saline with Tween-80 118 % of control | dose: 400.0 mg/kg/injection, schedule: Q04DX003 (ip), vehicle: saline with Tween-80 90 % of control

O=C(Nc1c(Cl)cccc1Cl)Oc1c(Br)cc(Br)cc1Br
inactive: [12] 108 % of control | [13] 101 % of control | [14] 102 % of control

O=C(OCC1OC(n2cc(C(F)(F)F)c(=O)[nH]c2=O)CC1OC(=O)c1ccc([N+](=O)[O-])cc1)c1ccc([N+](=O)[O-])cc1 (stereo not drawn)
inactive: dose: 12.0 mg/kg/injection, schedule: Q01DX005 (ip), vehicle: Klucel (hydroxypropylcellulose) (HPC) 100 % of control | [15] 108 % of control | [9] 105 % of control and 108 % of control | [10] 107 % of control

Nc1ccc(O)c(N)c1
inactive: dose: 0.78 mg/kg/injection, schedule: Q01DX009 (ip), vehicle: saline 99 % of control | dose: 1.56 mg/kg/injection, schedule: Q01DX009 (ip), vehicle: saline 96 % of control | dose: 3.12 mg/kg/injection, schedule: Q01DX009 (ip), vehicle: saline 102 % of control | dose: 6.25 mg/kg/injection, schedule: Q01DX009 (ip), vehicle: saline 105 % of control

CCCCn1c2nc(=O)[nH]c(=O)c-2[n+]([O-])c2ccccc21
inactive: [16] 102 % of control | [17] 102 % of control

COc1ccc(/C=C2/C(=O)ON=C2C)cc1OC
inactive: [6] 99 % of control | [7] 96 % of control | [8] 96 % of control

CC(=O)Cc1nc2ccccc2[nH]c1=O
inactive: dose: 15.0 mg/kg/injection, schedule: Q01DX005 (ip), vehicle: Klucel (hydroxypropylcellulose) (HPC) 92 % of control | dose: 30.0 mg/kg/injection, schedule: Q01DX005 (ip), vehicle: Klucel (hydroxypropylcellulose) (HPC) 90 % of control and 96 % of control | [12] 90 % of control and 98 % of control | [13] 91 % of control | [14] 100 % of control

O=C(c1cccnc1)N(Cc1ccccc1)C(=O)c1cccnc1
inactive: [16] 99 % of control | [17] 106 % of control | dose: 100.0 mg/kg/injection, schedule: Q01DX001 (ip), vehicle: saline with Tween-80 100 % of control | dose: 200.0 mg/kg/injection, schedule: Q01DX001 (ip), vehicle: saline with Tween-80 106 % of control

CCCCCCC(=O)/C=C/c1ccccc1OC(=O)c1ccc([N+](=O)[O-])cc1
inactive: [18] 98 % of control | [19] 99 % of control | dose: 200.0 mg/kg/injection, schedule: Q01DX009 (ip), vehicle: saline with Tween-80 96 % of control

CCC[CH2][Sn]1([CH2]CCC)[O]C(=O)CCSCCC(=O)[O]1
inactive: dose: 1.56 mg/kg/injection, schedule: Q01DX005 (ip), vehicle: saline with Tween-80 100 % of control and 106 % of control | dose: 3.12 mg/kg/injection, schedule: Q01DX005 (ip), vehicle: saline with Tween-80 109 % of control and 115 % of control and 121 % of control | dose: 6.25 mg/kg/injection, schedule: Q01DX005 (ip), vehicle: saline with Tween-80 107 % of control

C=CC(C)(C)C12Oc3c(ccc(OC)c3OC)C1=COc1cc(O)ccc12 (stereo not drawn)
inactive: dose: 100.0 mg/kg/injection, schedule: Q01DX001 (ip), vehicle: Klucel (hydroxypropylcellulose) (HPC) 101 % of control | dose: 200.0 mg/kg/injection, schedule: Q01DX001 (ip), vehicle: Klucel (hydroxypropylcellulose) (HPC) 105 % of control | dose: 400.0 mg/kg/injection, schedule: Q01DX001 (ip), vehicle: Klucel (hydroxypropylcellulose) (HPC) 97 % of control

CC1=CCCC1C1C=CCC1 (stereo not drawn) (tested in a mixture with another compound)
inactive: dose: 25.0 mg/kg/injection, schedule: Q01DX009 (ip), vehicle: saline with Tween-80 102 % of control | [18] 103 % of control and 105 % of control | [19] 116 % of control

Cc1cc(OC(=O)Nc2cc([N+](=O)[O-])ccc2C)c(C)cc1I
inactive: dose: 12.5 mg/kg/injection, schedule: Q01DX009 (ip), vehicle: saline 99 % of control | dose: 25.0 mg/kg/injection, schedule: Q01DX009 (ip), vehicle: saline 97 % of control | dose: 50.0 mg/kg/injection, schedule: Q01DX009 (ip), vehicle: saline 100 % of control and 91 % of control | dose: 100.0 mg/kg/injection, schedule: Q01DX009 (ip), vehicle: saline 92 % of control | dose: 200.0 mg/kg/injection, schedule: Q01DX009 (ip), vehicle: saline 100 % of control

CCCC(NC(=O)OCc1ccccc1)C(=O)NC(C(=O)O)C(C)CC (stereo not drawn) (Cbz-[Nva]-Ile-OH; configuration not given here)
inactive: [9] 100 % of control | [10] 100 % of control | [11] 101 % of control

O=c1oc2nc(-c3ccccc3)[nH]c(=O)c2c(O)c1-c1ccccc1
inactive: [12] 96 % of control | [13] 96 % of control

CNc1[nH]c(=O)[nH]c(=O)c1[N+](=O)[O-]
inactive: dose: 12.5 mg/kg/injection, schedule: Q01DX005 (ip), vehicle: Klucel (hydroxypropylcellulose) (HPC) 100 % of control | [15] 105 % of control | [9] 105 % of control and 112 % of control

CC1=NNC(=O)C1(Br)Br
inactive: dose: 3.13 mg/kg/injection, schedule: Q01DX009 (ip), vehicle: Klucel (hydroxypropylcellulose) (HPC) 90 % of control | dose: 6.25 mg/kg/injection, schedule: Q01DX009 (ip), vehicle: Klucel (hydroxypropylcellulose) (HPC) 100 % of control | dose: 12.5 mg/kg/injection, schedule: Q01DX009 (ip), vehicle: Klucel (hydroxypropylcellulose) (HPC) 100 % of control

COc1ccc(-c2cc(-c3ccc(OC)cc3OC)[n+](C)c(-c3ccc(OC)cc3OC)c2)cc1
inactive: dose: 0.78 mg/kg/injection, schedule: Q01DX009 (ip), vehicle: saline with Tween-80 124 % of control | dose: 1.56 mg/kg/injection, schedule: Q01DX009 (ip), vehicle: saline with Tween-80 124 % of control

CCN(CC)CCN1CC(=O)N2Cc3ccccc3CN2C(=O)C1
inactive: dose: 50.0 mg/kg/injection, schedule: Q01DX005 (ip), vehicle: saline with Tween-80 101 % of control | dose: 100.0 mg/kg/injection, schedule: Q01DX005 (ip), vehicle: saline with Tween-80 104 % of control
